Target: PIKFYVE (Homo sapiens, UniProt Q9Y2I7)
Experiment: PIKFYVE assay (luciferase ADP-Glo kinase assay, Promega)
Assay type: biochemical
Experimental: The activity of Compounds 1-20 was measured using a PIKFYVE assay (luciferase ADP-Glo kinase assay available from Promega Corp. of Madison, Wis.).

Chain of PIKFYVE (Q9Y2I7 whole entry): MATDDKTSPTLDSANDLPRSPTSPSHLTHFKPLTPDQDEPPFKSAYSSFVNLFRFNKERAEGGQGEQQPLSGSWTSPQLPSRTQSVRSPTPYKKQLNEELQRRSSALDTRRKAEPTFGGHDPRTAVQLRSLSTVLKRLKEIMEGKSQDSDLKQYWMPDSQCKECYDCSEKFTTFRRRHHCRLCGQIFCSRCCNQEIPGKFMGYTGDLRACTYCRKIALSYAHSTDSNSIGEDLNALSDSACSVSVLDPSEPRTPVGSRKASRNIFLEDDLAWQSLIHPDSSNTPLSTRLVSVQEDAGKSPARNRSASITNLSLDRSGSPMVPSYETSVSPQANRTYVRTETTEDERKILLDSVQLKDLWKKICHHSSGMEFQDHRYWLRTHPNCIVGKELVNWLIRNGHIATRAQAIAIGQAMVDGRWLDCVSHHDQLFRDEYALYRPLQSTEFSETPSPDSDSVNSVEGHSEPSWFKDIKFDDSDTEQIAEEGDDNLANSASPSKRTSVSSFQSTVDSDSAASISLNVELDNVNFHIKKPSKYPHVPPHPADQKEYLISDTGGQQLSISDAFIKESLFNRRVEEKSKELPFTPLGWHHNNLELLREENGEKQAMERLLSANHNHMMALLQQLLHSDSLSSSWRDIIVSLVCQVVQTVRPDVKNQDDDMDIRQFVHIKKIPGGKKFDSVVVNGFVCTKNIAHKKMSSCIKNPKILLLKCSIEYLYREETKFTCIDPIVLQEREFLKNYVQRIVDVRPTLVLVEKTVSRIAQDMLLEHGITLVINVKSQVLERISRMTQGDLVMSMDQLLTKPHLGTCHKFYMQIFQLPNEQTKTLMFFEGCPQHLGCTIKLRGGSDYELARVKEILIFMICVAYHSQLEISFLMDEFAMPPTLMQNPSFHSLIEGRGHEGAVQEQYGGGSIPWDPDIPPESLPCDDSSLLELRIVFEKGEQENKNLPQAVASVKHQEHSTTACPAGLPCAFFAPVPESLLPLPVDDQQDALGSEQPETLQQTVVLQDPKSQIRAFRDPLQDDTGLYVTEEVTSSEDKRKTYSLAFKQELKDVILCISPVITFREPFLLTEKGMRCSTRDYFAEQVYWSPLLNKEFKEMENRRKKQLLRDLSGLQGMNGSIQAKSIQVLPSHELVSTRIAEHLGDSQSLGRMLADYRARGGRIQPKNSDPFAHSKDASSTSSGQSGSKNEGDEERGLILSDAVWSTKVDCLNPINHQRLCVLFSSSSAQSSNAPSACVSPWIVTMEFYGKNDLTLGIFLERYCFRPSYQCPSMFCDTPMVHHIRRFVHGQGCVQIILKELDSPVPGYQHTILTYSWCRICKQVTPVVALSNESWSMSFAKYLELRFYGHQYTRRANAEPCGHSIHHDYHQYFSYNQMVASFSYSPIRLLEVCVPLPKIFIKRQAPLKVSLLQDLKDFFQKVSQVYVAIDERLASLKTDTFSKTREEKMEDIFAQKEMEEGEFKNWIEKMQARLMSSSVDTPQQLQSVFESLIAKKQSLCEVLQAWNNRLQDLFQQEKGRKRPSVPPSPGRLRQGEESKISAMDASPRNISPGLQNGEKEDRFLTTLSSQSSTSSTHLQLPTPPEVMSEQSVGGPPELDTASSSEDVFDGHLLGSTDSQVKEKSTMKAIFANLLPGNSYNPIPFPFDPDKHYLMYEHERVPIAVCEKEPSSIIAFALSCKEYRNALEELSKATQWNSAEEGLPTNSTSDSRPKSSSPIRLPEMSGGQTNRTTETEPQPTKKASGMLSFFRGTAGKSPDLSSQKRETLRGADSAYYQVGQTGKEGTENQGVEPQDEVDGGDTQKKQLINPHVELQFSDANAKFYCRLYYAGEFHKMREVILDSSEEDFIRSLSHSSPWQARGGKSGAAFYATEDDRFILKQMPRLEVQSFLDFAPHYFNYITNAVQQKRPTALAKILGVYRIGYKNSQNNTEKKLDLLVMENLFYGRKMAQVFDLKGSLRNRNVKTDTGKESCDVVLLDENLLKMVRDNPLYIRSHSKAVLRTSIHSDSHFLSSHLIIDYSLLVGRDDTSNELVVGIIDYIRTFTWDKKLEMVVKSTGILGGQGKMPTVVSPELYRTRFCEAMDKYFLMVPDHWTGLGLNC

| Structure (SMILES) | IC50 [nM] |
| --- | --- |
| c1ccc(-c2ccn(-c3cc(N4CC[C@H]5OCC[C@H]54)nc(OCCc4ccccn4)n3)n2)cc1 [Compound 4, (3aR,6aR)-4-(6-(3-phenyl-1H-pyrazol-1-yl)-2-(2-(pyridin-2-yl)ethoxy)pyrimidin-4-yl)hexahydro-2H-furo[3,2-b]pyrrole] | 101 to 1000 |
| c1ccc(-c2cn(-c3cc(N4CCOCC4)nc(OCCc4ccccn4)n3)cn2)cc1 [Compound 10, 4-(6-(4-phenyl-1H-imidazol-1-yl)-2-(2-(pyridin-2-yl)ethoxy)pyrimidin-4-yl)morpholine] | 1000 to 10000 |
| Cc1cccc(-c2csc(-c3cc(N4CC[C@H]5OCC[C@H]54)nc(OCC4CCCO4)n3)n2)c1 (stereo partly drawn) [Compound 11, (3aR,6aR)-4-(2-((tetrahydrofuran-2-yl)methoxy)-6-(4-(m-tolyl)thiazol-2-yl)pyrimidin-4-yl)hexahydro-2H-furo[3,2-b]pyrrole] | 101 to 1000 |
| Cc1cccc(-c2csc(-c3cc(N4CCOCC4)nc(OCC4CCCO4)n3)n2)c1 (stereo not shown) [Compound 12, 4-(2-((tetrahydrofuran-2-yl)methoxy)-6-(4-(m-tolyl)thiazol-2-yl)pyrimidin-4-yl)morpholine] | 5 to 100 |
| Cc1cccc(-n2ccc(-c3cc(N4CCOCC4)nc(OCC4CCCO4)n3)n2)c1 (stereo not shown) [Compound 13, 4-(2-((tetrahydrofuran-2-yl)methoxy)-6-(1-(m-tolyl)-1H-pyrazol-3-yl)pyrimidin-4-yl)morpholine] | 5 to 100 |
| COC1CCN(c2cc(-n3ccc(-c4cccc(C)c4)n3)nc(OCC3CCCO3)n2)C1 (stereo not shown) [Compound 15, 4-(3-methoxypyrrolidin-1-yl)-2-((tetrahydrofuran-2-yl)methoxy)-6-(3-(m-tolyl)-1H-pyrazol-1-yl)pyrimidine] | 1000 to 10000 |
| COc1cccc(-c2ccn(-c3cc(N4CC[C@H]5OCC[C@H]54)nc(OCCc4ccccn4)n3)n2)c1 [Compound 16, (3aR,6aR)-4-(6-(3-(3-methoxyphenyl)-1H-pyrazol-1-yl)-2-(2-(pyridin-2-yl)ethoxy)pyrimidin-4-yl)hexahydro-2H-furo[3,2-b]pyrrole] | 101 to 1000 |
| Cc1cccc(-c2ccn(-c3cc(C4CCOC4)nc(OCC4CCCO4)n3)n2)c1 (stereo not shown) [Compound 17, 2-((tetrahydrofuran-2-yl)methoxy)-4-(tetrahydrofuran-3-yl)-6-(3-(m-tolyl)-1H-pyrazol-1-yl)pyrimidine] | 5 to 100 |
| Cc1cccc(-c2ccn(-c3cc(N4CC[C@H]5OCC[C@H]54)nc(CCc4ncccn4)n3)n2)c1 [Compound 19] | 5 to 100 |
| Cc1cccc(-c2ccn(-c3cc(N4CCOCC4CO)nc(CCC4CCCO4)n3)n2)c1 (stereo not shown) [Compound 20, (4-(2-(2-(tetrahydrofuran-2-yl)ethyl)-6-(3-(m-tolyl)-1H-pyrazol-1-yl)pyrimidin-4-yl)morpholin-3-yl)methanol] | 5 to 100 |

The remaining lines, values ahead:

| IC50 [nM] | Structure (SMILES) |
| --- | --- |
| 5 to 100 | COc1cccc(-c2ccn(-c3cc(N4CC[C@H]5OCC[C@H]54)nc(OCC4CCCO4)n3)n2)c1 (stereo partly drawn) [Compound 1, (3aR,6aR)-4-(6-(3-(3-methoxyphenyl)-1H-pyrazol-1-yl)-2-((tetrahydrofuran-2-yl)methoxy)pyrimidin-4-yl)hexahydro-2H-furo[3,2-b]pyrrole] |
| < 5 | COc1cccc(-c2ccn(-c3cc(N4CCOCC4)nc(OCC4CCCO4)n3)n2)c1 (stereo not shown) [Compound 2, 4-(6-(3-(3-methoxyphenyl)-1H-pyrazol-1-yl)-2-((tetrahydrofuran-2-yl)methoxy)pyrimidin-4-yl)morpholine] |
| < 5 | COc1cccc(-c2ccn(-c3cc(N4CCOCC4)nc(OCCC4CCOCC4)n3)n2)c1 [Compound 3, 4-(6-(3-(3-methoxyphenyl)-1H-pyrazol-1-yl)-2-(2-(tetrahydro-2H-pyran-4-yl)ethoxy)pyrimidin-4-yl)morpholine] |
| 101 to 1000 | COc1cccc(-c2ccn(-c3cc(N4CC[C@H]5OCC[C@H]54)nc(OCCO)n3)n2)c1 [Compound 5, 2-((4-((3aR,6aR)-hexahydro-4H-furo[3,2-b]pyrrol-4-yl)-6-(3-(3-methoxyphenyl)-1H-pyrazol-1-yl)pyrimidin-2-yl)oxy)ethan-1-ol] |
| 5 to 100 | COc1cccc(-c2ccn(-c3cc(N4CC[C@H]5OCC[C@H]54)nc(OCCc4scnc4C)n3)n2)c1 [Compound 6, (3aR,6aR)-4-(6-(3-(3-methoxyphenyl)-1H-pyrazol-1-yl)-2-(2-(4-methylthiazol-5-yl)ethoxy)pyrimidin-4-yl)hexahydro-2H-furo[3,2-b]pyrrole] |
| < 5 | COc1cccc(-c2ccn(-c3cc(N4CCOCC4)nc(OCCc4scnc4C)n3)n2)c1 [Compound 7, 4-(6-(3-(3-methoxyphenyl)-1H-pyrazol-1-yl)-2-(2-(4-methylthiazol-5-yl)ethoxy)pyrimidin-4-yl)morpholine] |
| 5 to 100 | COc1cccc(-c2ccn(-c3cc(N4CC[C@H]5OCC[C@H]54)nc(OCCC(O)CO)n3)n2)c1 (stereo partly drawn) [Compound 8, 4-((4-((3aR,6aR)-hexahydro-4H-furo[3,2-b]pyrrol-4-yl)-6-(3-(3-methoxyphenyl)-1H-pyrazol-1-yl)pyrimidin-2-yl)oxy)butane-1,2-diol] |
| < 5 | COc1cccc(-c2ccn(-c3cc(N4CCOCC4)nc(OCCC(O)CO)n3)n2)c1 (stereo not shown) [Compound 9, 4-((4-(3-(3-methoxyphenyl)-1H-pyrazol-1-yl)-6-morpholinopyrimidin-2-yl)oxy)butane-1,2-diol] |
| 101 to 1000 | Cc1cccc(-c2ccn(-c3cc(N4CCCOCC4)nc(OCC4CCCO4)n3)n2)c1 (stereo not shown) [Compound 14, 4-(2-((tetrahydrofuran-2-yl)methoxy)-6-(3-(m-tolyl)-1H-pyrazol-1-yl)pyrimidin-4-yl)-1,4-oxazepane] |

From US20200199136A1, “PIKFYVE KINASE INHIBITORS” (ACURASTEM INC., priority 2017, published 2020)
